Data set [1] relates to stomach ulcer model induced by NSAIDs. As to the kind of experiment: Stomach ulcer induced by NSAIDs in rats, lyophilized NSAID and trehalose vs NSAID alone (Working Example 1). The data set is classed as in vivo, rat. The settings on record: trehalose 800 mg/kg, oral, 5 hours, average±standard deviation. On the procedure: Each of the test substances were adjusted by suspending or dissolving them into 0.5% CMC.Na solution. Each of 9 mL of Liquid doses was given per 1 kg weight by oral dose. 0.5% CMC.Na solutions were given to control group.
(§1) We bought Winster male rats (Japan SLC) that were 8 weeks old. We breed these rats keeping 20 to 26 degrees C., humidity of 30 to 70%, housing 2 to 3 rats in a rat breeding gage (mouse and rat breeding CE-2), giving enough amount of filtered tap water. After breeding 7 days, 5 to 10 rats per group were picked to execute the example. The rats were fasting for 24 hours without giving no food and then the rats were fed no food and no water for 1 hour just before the examination.
From 11 am on the previous day of the examination date, the rats were kept fasting and test substances were fed though mouse. After 5 hours passed, these rats were killed by carbon dioxide gas and stomachs were picked up. The duodenums were tagged. 6 mL of neutral formalin was poured from the esophagi so as to fix the stomachs for 30 minutes. The stomachs were cut along with the greater curvature. The cut stomachs were gently washed by saline, the presence of blood spot were observed by a stereoscopic microscope. The area of blood spots was measured by 0.5 mm×0.5 mm unit as an index of ulcer and the sum of each animal was calculated. The rate of suppressed ulcer was calculated, using the ulcer index for the group in which each of test sample was given and the group in which trehalose was also given, in accordance with the following equation.
(§2) Rate of suppressed ulcer(%)=[1−A/B]×100 • […]

For data set [2], the system named is gastric mucosal disorder (ulcer) induced by NSAIDs. As to the kind of experiment: Gastric mucosal disorder in rats: NSAID alone, mixture with trehalose, lyophilized with trehalose (Working Example 2). The data set is classed as in vivo. The settings on record: rat, oral, 5 hours, trehalose 800 mg/kg. Here is the method: The liquid doses were prepared on the date when the examination was executed. Weighted NSAIDs were suspended or dissolved into 0.5% CMC.Na solution to prepare doses of administrating NSAIDs only. Suspension of NSAIDs and solution of trehalose were prepared. […] For each groups the amount of dose was 8 mL per kg or rat.
as §1
From 11 am on the previous day of the examination date, the rats were kept fasting and test substances were fed though mouse. After 5 hours passed, these rats were killed by carbon dioxide gas and stomachs were picked up. The duodenums were tagged. 6 mL of neutral formalin were poured from the esophagi so as to fix the stomachs for 30 minutes. The stomachs were cut along with the greater curvature. The cut stomachs were gently washed by saline, the presence of blood spot were observed by a stereoscopic microscope.
The area of blood spots was measured by 0.5 mm×0.5 mm unit as an index of ulcer and the sum of each animals was calculated. The rate of suppressed ulcer was calculated, using the ulcer index for the group in which each of test samples were given and the group in which trehalose was also given, in accordance with the following equation.
as §2

For `CC(=O)Oc1ccccc1C(=O)O` [Aspirin alone, aspirin], in data set [1] (stomach ulcer model induced by aspirin, aspirin 200 mg/kg), the “ulcer (area of blood spots, ulcer index)” value turned out to be 10.40±2.80 mm^2. In addition, the “Ulcer index (mm^2, average ± standard deviation)” value in data set [2] (aspirin 200 mg/kg) is given as 10.40 ± 2.73 mm^2; in data set [2] (aspirin 200 mg/kg, listed as aspirin alone) it was 10.40±2.73 mm^2.

With `O=C(O)Cc1ccccc1Nc1c(Cl)cccc1Cl` [Diclofenac alone, sodium diclofenac], the “ulcer (area of blood spots, ulcer index)” value in data set [1] (stomach ulcer model induced by diclofenac, diclofenac 40 mg/kg) was found to be 4.30±0.71 mm^2. In addition, the “Ulcer index (mm^2, average ± standard deviation)” value in data set [2] (diclofenac 40 mg/kg) was found to be 4.30 ± 0.71 mm^2; in data set [2] (diclofenac 40 mg/kg, listed as diclofenac alone), 4.30±0.71 mm^2.

Regarding `COc1ccc2c(c1)c(CC(=O)O)c(C)n2C(=O)c1ccc(Cl)cc1` [Indomethacin alone, indomethacin], the “ulcer (area of blood spots, ulcer index)” value in data set [1] (stomach ulcer model induced by indomethacin, indomethacin 30 mg/kg) amounted to 4.83±0.90 mm^2. Besides, the “Ulcer index (mm^2, average ± standard deviation)” value in data set [2] (indomethacin 30 mg/kg) stood at 4.83 ± 0.90 mm^2; in data set [2] (indomethacin 30 mg/kg, listed as indomethacin alone), 4.83±0.90 mm^2.

As to `CC(C)Cc1ccc(C(C)C(=O)O)cc1` (stereo not shown) [ibuprofen alone, ibuprofen], in data set [1] (stomach ulcer model induced by ibuprofen, ibuprofen 400 mg/kg), the “ulcer (area of blood spots, ulcer index)” value stood at 5.35±1.86 mm^2.

The record behind these values is patent US20110301116A1, “NSAIDS-INDUCED GASTROINTESTINAL MUCOSAL DISORDER ALLEVIATOR AND MANUFACTURING METHOD THEREOF” (THE UNIVERSITY OF TOKYO, priority 2008, published 2011).
